From patent publication US9580449B2, “Compositions and methods for the production of pyrimidine and pyridine compounds with BTK inhibitory activity” (Merck Patent GmbH, priority 2011, dated 2017)
Like-named read-outs stand apart in the source and are kept apart here.

Tests used:
full-length human BTK = full-length human BTK (Homo sapiens (Human), UniProt Q06187); assay: BTK IC50 enzyme assay (microfluidic off-chip mobility shift kinase assay); type: biochemical; details: incubated for 90 min. at 27 C; read-out: Time Dependent BTK Enzyme Assay IC50
Outline: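 Read-out separates phosphorylated peptide product from substrate by charge/mass in a mobility shift format with full-length human BTK.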

PBMC = assay: Time Dependent PBMC IC50 assay; type: cell-based
Procedure: Compounds described by embodiments of the present invention were assayed using a time dependent PMBC assay.

BTK = BTK (Homo sapiens (Human), UniProt Q06187); assay: Time Dependent Human Whole Blood IC50 assay; type: cell-based
Procedure: Compounds described by embodiments of the present invention were assayed using a human whole blood assay. The data from the same is recorded in Table 2 within the column labeled: “Time Dependent Human Whole Blood BTK Enzyme Assay IC50”.

Chain of full-length human BTK (Q06187 whole entry): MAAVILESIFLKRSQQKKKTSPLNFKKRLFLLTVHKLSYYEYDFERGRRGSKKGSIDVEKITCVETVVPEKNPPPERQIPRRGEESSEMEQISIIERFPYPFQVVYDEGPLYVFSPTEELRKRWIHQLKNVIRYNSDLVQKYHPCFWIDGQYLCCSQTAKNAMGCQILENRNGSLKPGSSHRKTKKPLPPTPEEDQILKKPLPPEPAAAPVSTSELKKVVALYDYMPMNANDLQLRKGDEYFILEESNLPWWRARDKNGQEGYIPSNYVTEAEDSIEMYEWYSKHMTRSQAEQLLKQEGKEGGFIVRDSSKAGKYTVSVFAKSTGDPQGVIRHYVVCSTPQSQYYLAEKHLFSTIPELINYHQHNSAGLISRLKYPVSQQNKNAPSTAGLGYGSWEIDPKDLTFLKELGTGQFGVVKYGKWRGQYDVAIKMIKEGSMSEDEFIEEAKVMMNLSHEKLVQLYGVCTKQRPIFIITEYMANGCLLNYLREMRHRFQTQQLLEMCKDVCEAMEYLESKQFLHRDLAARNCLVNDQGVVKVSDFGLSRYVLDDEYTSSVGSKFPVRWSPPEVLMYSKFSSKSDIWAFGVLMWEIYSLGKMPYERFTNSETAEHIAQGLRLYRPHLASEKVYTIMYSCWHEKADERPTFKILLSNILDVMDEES
Chain of BTK (Q06187 whole entry): as above

Row | IC50 (full-length human BTK) | IC50 (BTK; human whole blood, read-out: Time Dependent Human Whole Blood BTK Enzyme Assay IC50) | SMILES | IC50 (PBMC) | IC50 (BTK)
1 | < 100 nM |  | C=CC(=O)N1CCC(COc2ncncc2-c2ccc(Oc3ccccc3)cc2)CC1 [A6, 1-(4-(((5-(4-phenoxyphenyl)pyrimidin-4-yl)oxy)methyl)piperidin-1-yl)prop-2-en-1-one] | < 1000 nM | 
2 | > 1000 nM |  | C=CC(=O)N1CCC(CNc2ncnc(N)c2-c2ccc(Oc3ccccc3)nc2)CC1 [A168, 1-(4-(((6-amino-5-(6-phenoxypyridin-3-yl)pyrimidin-4-yl)amino)methyl)piperidin-1-yl)prop-2-en-1-one] | > 1000 nM | 
3 | < 100 nM |  | CC#CC(=O)N1CCC(CNc2ncnc(N)c2-c2ccc(Oc3ccccc3)cc2)CC1 [A336, 1-(4-(((6-amino-5-(4-phenoxyphenyl)pyrimidin-4-yl)amino)methyl)piperidin-1-yl)but-2-yn-1-one] | < 1000 nM | 
4 | < 100 nM |  | C#CC(=O)N1CCC2(CC(Nc3ncnc(N)c3-c3ccc(Oc4ccccc4)cc3)C2)C1 (centres unmarked) [A115, 1-(2-((6-amino-5-(4-phenoxyphenyl)pyrimidin-4-yl)amino)-6-azaspiro[3.4]octan-6-yl)prop-2-yn-1-one] | > 1000 nM | 
5 | < 100 nM |  | C=CC(=O)N[C@H]1C[C@@H](Nc2ncnc(N)c2-c2ccc(Oc3ccccc3)cc2)C1 [A118] | < 1000 nM | 
6 | < 100 nM |  | C=CC(=O)N1CC2(CC(Oc3ncnc(N)c3-c3cnn(Cc4ccccc4)c3)C2)C1 [A106, 1-(6-((6-amino-5-(1-benzyl-1H-pyrazol-4-yl)pyrimidin-4-yl)oxy)-2-azaspiro[3.3]heptan-2-yl)prop-2-en-1-one] | > 1000 nM | 
7 | < 100 nM |  | C=CC(=O)N1CCCCC(Nc2ncnc(N)c2-c2ccc(Oc3ccccc3)cc2)C1 (centres unmarked) [A52, 1-(3-((6-amino-5-(4-phenoxyphenyl)pyrimidin-4-yl)amino)azepan-1-yl)prop-2-en-1-one] | < 1000 nM | 
8 | < 100 nM |  | CN(C)C/C=C/C(=O)N1CC2(CC(Nc3ncnc(N)c3-c3ccc(Oc4ccccc4)cc3)C2)C1 [A127, (E)-1-(6-((6-amino-5-(4-phenoxyphenyl)pyrimidin-4-yl)amino)-2-azaspiro[3.3]heptan-2-yl)-4-(dimethylamino)but-2-en-1-one] | < 1000 nM | 
9 | < 100 nM |  | C#CC(=O)N[C@@H]1CCC[C@H](Nc2ncnc(N)c2-c2ccc(Oc3ccccc3)cc2)C1 (relative stereo) [A64, N-(cis-3-((6-amino-5-(4-phenoxyphenyl)pyrimidin-4-yl)amino)cyclohexyl)propiolamide] | < 1000 nM | 
10 | < 100 nM |  | C=CC(=O)N1C[C@H](Nc2ncnc(N)c2-c2ccc(Oc3ccccc3)cc2)[C@@H](O)C1 (relative stereo) [A75, 1-(trans-3-((6-amino-5-(4-phenoxyphenyl)pyrimidin-4-yl)amino)-4-hydroxypyrrolidin-1-yl)prop-2-en-1-one] | < 1000 nM | 
11 | < 100 nM | < 1000 nM | C=CC(=O)N1CC2(CC(Oc3ncnc(N)c3-c3ccc(Oc4ccccc4)cc3)C2)C1 [A120, 1-(6-((6-amino-5-(4-phenoxyphenyl)pyrimidin-4-yl)oxy)-2-azaspiro[3.3]heptan-2-yl) prop-2-en-1-one] | < 1000 nM | 
12 | < 100 nM |  | C=CC(=O)N1CC2(CC(Oc3ncnc(N)c3-c3ccc(Oc4ccncc4)cc3)C2)C1 [A114, 1-(6-((6-amino-5-(4-(pyridin-4-yloxy)phenyl)pyrimidin-4-yl)oxy)-2-azaspiro[3.3]heptan-2-yl)prop-2-en-1-one] | > 1000 nM | 
13 | < 100 nM |  | C=CC(=O)Nc1cccc(Nc2ncnc(N)c2-c2cnn(Cc3ccccc3)c2)c1 [A70, N-(3-((6-amino-5-(1-benzyl-1H-pyrazol-4-yl)pyrimidin-4-yl)amino)phenyl)acrylamide] | < 1000 nM | 
14 | < 100 nM |  | C=CC(=O)N[C@H]1C[C@H](Nc2ncnc(N)c2-c2ccc(Oc3ccccc3)cc2)C1 [A117, N-(1,3-trans-3-((6-amino-5-(4-phenoxyphenyl)pyrimidin-4-yl)amino)cyclobutyl)acrylamide] | < 1000 nM | 
15 | < 100 nM |  | C=CC(=O)Nc1cccc(-c2cnc(N)nc2Oc2ccc(Oc3ccccc3)cc2)c1 [A306, N-(3-(2-amino-4-(4-phenoxyphenoxy)pyrimidin-5-yl)phenyl)acrylamide] | < 1000 nM | 
16 |  |  | C=CC(=O)N1CC[C@@H](COc2ncnc(N)c2-c2ccc(Oc3ccccc3)cc2)C1 [A38, (R)-1-(3-(((6-amino-5-(4-phenoxyphenyl)pyrimidin-4-yl)oxy)methyl)pyrrolidin-1-yl)prop-2-en-1-one] | < 1000 nM | 
17 | < 100 nM |  | CN(C)C/C=C/C(=O)N1CC2(CC(Oc3ncnc(N)c3-c3ccc(Oc4ccccc4)cc3)C2)C1 [A105, (E)-1-(6-((6-amino-5-(4-phenoxyphenyl)pyrimidin-4-yl)oxy)-2-azaspiro[3.3]heptan-2-yl)-4-(dimethylamino)but-2-en-1-one] | < 1000 nM | 

Row | IC50 (full-length human BTK) | IC50 (BTK; human whole blood, read-out: Time Dependent Human Whole Blood BTK Enzyme Assay IC50) | SMILES | IC50 (PBMC) | IC50 (BTK)
18 |  |  | C=CC(=O)N1CC[C@@H](Nc2ncnc(N)c2-c2ccc(Oc3ccccc3)cc2)C1 [A1, (R)-1-(3-((6-amino-5-(4-phenoxyphenyl)pyrimidin-4-yl)amino)pyrrolidin-1-yl)prop-2-en-1-one] | < 1000 nM | 
19 | < 100 nM |  | C=CC(=O)Nc1cccc(Oc2ncnc(N)c2-c2ccc(Oc3ccccc3)cc2)c1 [A242, N-(3-((6-amino-5-(4-phenoxyphenyl)pyrimidin-4-yl)oxy)phenyl)acrylamide] | < 1000 nM | 
20 |  |  | C=CS(=O)(=O)N1CCC(CNc2ncnc(N)c2-c2ccc(Oc3ccccc3)cc2)CC1 [A10, 5-(4-phenoxyphenyl)-N4-((1-(vinylsulfonyl)piperidin-4-yl)methyl)pyrimidine-4,6-diamine] | < 1000 nM | 
21 | < 100 nM |  | CN(C)C/C=C/C(=O)N1CC[C@@H](CNc2ncnc(N)c2-c2ccc(Oc3ccccc3)cc2)[C@H](O)C1 [A126, (E)-1-((3S,4S)-4-(((6-amino-5-(4-phenoxyphenyl)pyrimidin-4-yl)amino)methyl)-3-hydroxypiperidin-1-yl)-4-(dimethylamino)but-2-en-1-one] | < 1000 nM | 
22 | < 100 nM |  | C=CC(=O)Nc1cccc(Oc2ncnc(N)c2-c2cnn(Cc3cccc(F)c3)c2)c1 [A67, N-(3-((6-amino-5-(1-(3-fluorobenzyl)-1H-pyrazol-4-yl)pyrimidin-4-yl)oxy)phenyl)acrylamide] | < 1000 nM | 
23 |  |  | C=CC(=O)N1CC2(CC(Nc3ncnc(N)c3-c3ccc(Oc4ccccc4)cc3)C2)C1 [A124, 1-(6-((6-amino-5-(4-phenoxyphenyl)pyrimidin-4-yl)amino)-2-azaspiro[3.3]heptan-2-yl)prop-2-en-1-one] | < 1000 nM | 
24 | < 100 nM |  | CN(C)C/C=C/C(=O)Nc1cccc(Oc2ccnc(N)c2-c2ccc(Oc3ccccc3)cc2)c1 [A151, (E)-N-(3-((2-amino-3-(4-phenoxyphenyl)pyridin-4-yl)oxy)phenyl)-4-(dimethylamino)but-2-enamide] | > 1000 nM | 
25 | < 100 nM |  | C=CC(=O)Nc1cccc(Oc2ncnc(N)c2-c2ccc(C(=O)Nc3ccccc3)cc2)c1 [A258, 4-(4-(3-acrylamidophenoxy)-6-aminopyrimidin-5-yl)-N-phenylbenzamide] | > 1000 nM | 
26 | < 100 nM |  | C=CC(=O)Nc1cccc(-c2c(N)ncnc2Oc2ccc(Oc3ccccc3)cc2)c1 [A245, N-(3-(4-amino-6-(4-phenoxyphenoxy)pyrimidin-5-yl)phenyl)acrylamide] | < 1000 nM | 
27 |  |  | C=CC(=O)N1CCC(CNc2ncnc(N)c2-c2ccc(Oc3cccc(F)c3)cc2)CC1 [A34, 1-(4-(((6-amino-5-(4-(3-fluorophenoxy)phenyl)pyrimidin-4-yl)amino)methyl)piperidin-1-yl)prop-2-en-1-one] | < 1000 nM | 
28 |  |  | C=CC(=O)N[C@H]1CC[C@@H](Nc2ncnc(N)c2-c2ccc(Oc3ccccc3)cc2)CC1 [A266, N-((1s,4s)-4-((6-amino-5-(4-phenoxyphenyl)pyrimidin-4-yl)amino)cyclohexyl)acrylamide] | < 1000 nM | 
29 |  |  | C=CC(=O)N1CCC[C@@H](Nc2ncnc(N)c2-c2ccc(Oc3ccccc3)cc2)C1 [A247, (R)-1-(3-((6-amino-5-(4-phenoxyphenyl)pyrimidin-4-yl)amino)piperidin-1-yl)prop-2-en-1-one] | < 1000 nM | 
30 | < 100 nM |  | CC#CC(=O)N1CC[C@@H](Nc2ncnc(N)c2-c2ccc(Oc3ccccc3)cc2)C1 [A341, (R)-1-(3-((6-amino-5-(4-phenoxyphenyl)pyrimidin-4-yl)amino)pyrrolidin-1-yl)but-2-yn-1-one] | < 1000 nM | 
31 | < 100 nM |  | C=CC(=O)N1CCC2(CC(Nc3ncnc(N)c3-c3ccc(Oc4ccccc4)cc3)C2)C1 (centres unmarked) [A113, 1-(2-((6-amino-5-(4-phenoxyphenyl)pyrimidin-4-yl)amino)-6-azaspiro[3.4]octan-6-yl)prop-2-en-1-one] | < 1000 nM | 
32 | < 100 nM |  | CN(C)C/C=C/C(=O)Nc1cccc(Oc2ncnc(N)c2-c2ccc(Oc3ccccc3)cc2)c1 [A252, (E)-N-(3-((6-amino-5-(4-phenoxyphenyl)pyrimidin-4-yl)oxy)phenyl)-4-(dimethylamino)but-2-enamide] | < 1000 nM | 
33 | < 100 nM |  | C=CC(=O)N1CCC(CNc2ncnc(N)c2-c2ccc(Oc3ccccc3)cc2)(OC)CC1 [A121, 1-(4-(((6-amino-5-(4-phenoxyphenyl)pyrimidin-4-yl)amino)methyl)-4-methoxypiperidin-1-yl)prop-2-en-1-one] | < 1000 nM | 

Row | SMILES | IC50 (full-length human BTK) | IC50 (BTK; human whole blood, read-out: Time Dependent Human Whole Blood BTK Enzyme Assay IC50) | IC50 (PBMC) | IC50 (BTK)
34 | C=CC(=O)N1C2CCC1CC(CNc1ncnc(N)c1-c1ccc(Oc3ccccc3)cc1)C2 (centres unmarked) [A48, 1-(3-(((6-amino-5-(4-phenoxyphenyl)pyrimidin-4-yl)amino)methyl)-8-azabicyclo[3.2.1]octan-8-yl)prop-2-en-1-one] | < 100 nM |  |  | > 1000 nM
